Source: article PMC12680861, “Comparative analysis of LJ-4378 and tirzepatide in mouse models of obesity and weight regain” (Archives of Pharmacal Research, 2025)

Columns and labels:
[1] = test system: HFD-fed mice; assay: Diet-induced obesity model: body weight, body composition, adipose weights, micro-CT; assay type: in vivo, C57BL/6 J male mice; conditions: for fat mass reduction relative to HFD controls / reduction in total body weight compared to the HFD control group: LJ-4378 1 mg/kg/day I.P., TZP 10 nmol/kg/day S.C.
Experimental: Animal experiments were conducted in accordance with the guidelines approved by the Institutional Animal Care and Use Committees (IACUC) of Seoul National University (SNU-230113–5-2, SNU-250410–1, and SNU-250811–5). C57BL/6 J male mice and Sprague–Dawley (SD) male rats were raised in a controlled animal facility with a temperature of 22 ± 1 °C and subjected to a 12-h light/12-h dark cycle. Mice were randomly assigned to experimental groups and fed either a normal chow diet (NCD, protein: 24.52% calories, carbohydrates: 63.07% calories, fat: 12.41% calories, 38,057, Purina Lab, Seongnam, Republic of Korea) or a high-fat diet (HFD, protein: 20% kcal, carbohydrate: 20% kcal, fat: 60% kcal, New Brunswick, D12492, Research Diets, NJ, USA) for the specified durations, according to group assignment. Both diet and water were provided ad libitum. SD rats (230–240 g) were provided standard rat chow and had free access to water. Prior to the experiment, the rats underwent a 12-h fasting period.
(§1) To evaluate the anti-obesity effect in vivo, mice fed either NCD or HFD for 10 weeks were subsequently treated for up to 4 weeks. To control for injection route-related variables, all mice received both intraperitoneal (I.P.) and subcutaneous (S.C.) injections. The administration were as follows: LJ-4378 treated mice received LJ-4378, which was synthesized in our laboratory at > 95% purity (1 mg/kg/day, I.P.) (Hou et al. [2010]; Kim et al. [2022]) along with the vehicle for TZP (40 mM Tris–HCl, pH 8, S.C.); TZP treated mice received TZP (Samms et al. [2021]; Kim et al. [2022]) (LY3298176, MedChemExpress, Monmouth Junction, NJ, USA) (10 nmol/kg/day, S.C.) along with the vehicle for LJ-4378 (0.2% DMSO, I.P.); vehicle control mice received both vehicles (0.2% DMSO, I.P. and 40 mM Tris–HCl, pH 8, S.C.)
(§2) Body composition and micro-CT analysis were performed after the treatment with vehicle, LJ-4378, or TZP for the indicated duration in HFD-fed mice and WR mice.
(§3) A nuclear magnetic resonance (NMR) technology system with EchoMRI-700 (Echo Medical Systems, […]) was used to analyze body composition.
(§4) To assess the abdominal fat volume, we employed the Quantum GX2 micro-CT imaging system (PerkinElmer, Waltham, MA, USA). Mice were anesthetized with isoflurane and positioned on the micro-CT bed for imaging of the abdominal region, defined from the proximal end of the L1 vertebra to the distal end of the L5 vertebra. Imaging was performed at 90 kV/88 µA with a field of view of 72 mm, a pixel size of 90 µm, and a 2-min acquisition time at standard resolution. Visceral, subcutaneous, and total abdominal fat volumes were quantified using AnalyzeDirect software (ver. 12.0, Overland Park, KS, USA).

[2] = test system: HFD-fed mice; assay: Immunoblot of lipolytic, thermogenic and mitochondrial proteins in BAT and iWAT; serum FFA; assay type: in vivo, C57BL/6 J male mice; conditions: for P-HSL, P-CREB, UCP1 and COXIV levels in BAT: western blot
Experimental: as §1
Serum free fatty acid (FFA) levels were quantification using HR Series NEFA-HR (2) (Color Reagent A (#999–34691), Solvent A (#995–34791), Color Reagent B (#991–34891), Solvent B (#993–35191), and NEFA Standard Solution (#276–76491) (FUJIFILM Wako Pure Chemicals, Osaka, Japan), following the manufacturer’s instruction.
For protein extraction, we utilized PRO-RERP Protein Extraction Solution (17081, iNtRON Biotechnology, Gyeonggi-do, Korea), supplemented with […] […] Protein concentrations were determined using the Pierce BCA protein assay Kit (#23227, Thermo Fisher, Waltham, Massachusetts, USA) by measuring absorbance at 562 nm with a MultiSkan GO spectrophotometer (Thermo Fisher). The quantified proteins were loaded and separated in 12% SDS-PAGE gels and transferred to polyvinylidene difluoride (PVDF) membranes (Bio-Rad, Hercules, CA, USA). […] After secondary antibody incubation, membranes were washed 3 times with TBST and detected with the Fusion Solo chemiluminescence imaging system (Vilber Lourmat, France). EvolutionCapt (version 17.03) software and the ImageJ (National Institutes of Health, Bethesda, MD, USA) program were used for analysis and to quantify the protein level.

[3] = Preliminary study, I.V. bolus administration to mice; assay type: in vivo
[4] = test system: WR mice; assay: Weight rebound (WR) model: body weight, food intake, adiposity after treatment cessation; assay type: in vivo, C57BL/6 J male mice; conditions: for body weight after treatment cessation: 4 weeks post-cessation on HFD; for food intake after withdrawal: 16 days after cessation; for body weight regained over 4 weeks as a percentage of the initial weight loss: WR groups, 4 weeks after 14-day treatment; for food intake during the 14-day treatment: measured every 2 days
Text: To assess post-treatment weight rebound (WR), the mice previously treated with vehicle, LJ-4378, or TZP were maintained on HFD for an additional 4 weeks following treatment cessation. Treatment protocols for the WR groups were identical to those of the HFD groups. In total, nine experimental groups were established: NCD + CTL, NCD + LJ, NCD + TZP; HFD + CTL, HFD + LJ, HFD + TZP; and WR + CTL, WR + LJ, WR + TZP. The volume of oxygen consumed (VO2), carbon dioxide produced (VCO2), respiratory exchange ratio (RER), energy expenditure, activity, and food intake were measured with PhenoMaster (TSE Systems, Bad Homburg, Germany). Indirect calorimetry was performed under controlled conditions, with a stable ambient temperature of 24 °C and a 12 h light/12-h dark cycle. Mice fed HFD were administered vehicle, LJ-4378, or TZP for 14 days, and the last 2 days of treatment were conducted during indirect calorimetry analysis. The WR model was examined by indirect calorimetry after 2 and 4 weeks of the weight regaining phase.
Additionally, food consumption was measured every 2 days during the 14-day treatment period and for an additional 16 days post-administration.
as §2, §3, §4

[5] = 4 weeks after treatment cessation

| Compound | fat ratio (% of the total body weight) ([1]; 4 weeks of LJ-4378, HFD-fed mice) [%] | fat mass reduction relative to HFD controls ([1]; 14 days) [%] | reduction in total body weight compared to the HFD control group ([1]; 14 days) [%] | iWAT and gWAT mass ([1]; HFD-fed mice, 14 days) | visceral and subcutaneous abdominal fat (micro-CT) ([1]; HFD-fed mice, 14 days) | reduction in body weight ([1]; four weeks of LJ-4378 administration, HFD-fed mice) [%] | UCP1 expression in BAT, LJ-4378 versus TZP [2] | P-HSL, P-CREB, UCP1 and COXIV levels in BAT [2] | terminal phase half-life [3] | gWAT and visceral abdominal fat, compared with the TZP group [4, 5] | whole-body fat ratio, LJ-4378 versus TZP [4, 5] | body weight after treatment cessation [4] | food intake after withdrawal [4] | body weight regained over 4 weeks as a percentage of the initial weight loss [4] [%] | food intake during the 14-day treatment [4] | fat ratio (% of the total body weight) ([1]; 2 weeks of TZP treatment, HFD-fed mice) [%] | brown adipose tissue (BAT) mass ([1]; HFD-fed mice, 14 days) |
| --- | --- | --- | --- | --- | --- | --- | --- | --- | --- | --- | --- | --- | --- | --- | --- | --- | --- |
| CCCCC#Cc1nc(N)c2ncn([C@@H]3SC[C@@H](O)[C@H]3O)c2n1 [LJ-4378] | 20.1 | 30.7 | 9.04 | significantly reduced | reduction | 15.5 | more strongly induced | elevated levels | approximately 0.29 h | reduction | significantly lower | maintained a relatively low body weight | did not alter food intake during or after treatment | 88 | did not alter food intake during or after treatment | – | – |
| Tirzepatide [TZP, reference compound] | – | 32.4 | 18.63 | significantly reduced | reduction | – | – | elevated levels | – | – | – | rapid weight regain | sharp rebound in food consumption | 127 | significantly suppressed food intake | 27.4 | reduced |
